Test [1] concerns the target T1, PDE4B catalytic domain (PDE4Bcat) (Homo sapiens, UniProt Q07343).
T1 construct: The cDNA of PDE4B catalytic domain (hereinafter abbreviated as Cat) was isolated from human RNA by RT-PCR; made in house; host or cells: Sf9 insect cells (baculovirus, Gateway / Bac-to-Bac)
The test can be described thus: Phosphodiesterase inhibitory activity ([3H]cAMP breakdown, recombinant PDE4Bcat). Type of test: biochemical. To be noted: 30° C. 20 minutes, read-out: IC50(μmol/L) PDE4. An excerpt: The cDNA of PDE4B catalytic domain (hereinafter abbreviated as Cat) was isolated from human RNA by RT-PCR. The isolated cDNA fragments were inserted into Sf9 insect cells using Gateway system (product of Invitrogen Corporation) and Bac-to-Bac (registered trademark) Baculovirus Expression system (product of Invitrogen Corporation) to express a target PDE protein. The recombinant PDE4Bcat was purified from the culture supernatants or cell extracts of Sf9 cells expressing high levels of the PDE protein by ion exchange chromatography and was used for the following experiments.
A 4 mmol/L solution of each test compound was serially diluted four-fold with a 15% DMSO solution to prepare solutions with concentrations of 15 nmol/L to 4 mmol/L (the final concentrations used in the experiments were 1.5 nmol/L to 400 μmol/L). 10 μL of the prepared test compound solutions, [3H] cAMP diluted with a buffer solution (40 mmol/L Tris-HCl (pH: 7.4), 10 mmol/L MgCl2), and 40 μL of the recombinant human PDE protein (2×10^−6 units, 1 unit is defined as the amount of PDE that breaks down 1 μmol/L of cAMP in one minute under the conditions of a pH of 7.5 and 30° C.) were added to a 96-well plate. The mixtures were reacted at 30° C. for 20 minutes. Then, the resultant mixtures were reacted at 65° C. for 2 minutes. Subsequently, 25 μL of 1 mg/mL5′-nucleotidase (Crotalus atrox venom, product of Sigma) was added to the mixtures, and the mixtures were reacted at 30° C. for 10 minutes. After completion of the reaction, 200 μL of a solution of Dowex (300 mg/mL Dowex 1×8-400 (product of Sigma Aldrich), 33% ethanol) was added to the mixtures, and the mixtures were shaken at 4° C. for 20 minutes. Subsequently, 200 μL of MicroScint 20 (product of Packard) was added to the mixtures, and measurement was performed using a scintillation counter (Topcount, product of Packard). IC50 values were calculated using Graph Pad Prism v3.03 (product of GraphPad Software). When […], the results were represented by “+.” When 0.1 μmol/L>the IC50 value, the results were represented by “++.”

In test [2] the test system is histamine-induced bronchoconstriction. The experiment in a line: Histamine-induced airway contraction reaction in guinea pigs. It counts as in vivo. To be noted: Cavia porcellus, iv, 0.5 min, i.v., 30 seconds after administration, read-out: Inhibition ratio; for inhibition in vivo at 0.1 mg/kg: 0.1 mg/kg administration (not in brackets); for inhibition in vivo at 0.3 mg/kg: 0.3 mg/kg administration (results in brackets). The procedure:
Guinea pigs were anesthetized with pentobarbital (30 mg/kg, i.p.). A cannula for intravenous administration, a cannula for collecting blood and measuring blood pressure, and a tracheal cannula were inserted into the left external jugular vein, right internal carotid artery, and trachea, respectively. The guinea pigs were maintained on artificial respiration under the conditions of 60 times/min and 10 mL/kg/stroke. The airflow from the side branch of the tracheal cannula was measured by a bronchospasm transducer (Ugo-Basile) and recorded on a computer via Power Lab (ADInstruments Japan). The guinea pigs were immobilized with gallamine (10 mg/kg, i.v.), and histamine was administered at 10-minute intervals (12.5 μg/kg, i.v.). […] We examined the inhibitory action of test compounds on histamine-induced bronchoconstriction 30 seconds after compounds administration. Bronchoconstriction was recorded as the amount of airflow, and the results were represented by the ratio of the maximum value of the histamine-induced airflow 30 seconds after the administration to the maximum value of the airflow before the administration. When the inhibition ratio≧90%, the results were represented by “+++.” When 90%>the inhibition ratio≧70%, the results were represented by “++.” When 70%>the inhibition ratio≧30%, the results were represented by “+.” The results shown in brackets are for 0.3 mg/kg administration, and the other results are for 0.1 mg/kg administration.

In test [3] the test system is LPS-induced leukocytes in bronchoalveolar lavage fluid. The experiment in a line: LPS acute inflammation model in rats (total leukocytes in BALF). Type of test: in vivo. To be noted: 1 mg/kg orally one hour before LPS inhalation, total leukocytes in BALF 3 hours after LPS. The procedure: 1 mg/kg of the compounds were orally administered to rats one hour before inhalation of lipopolysaccharide (LPS) from E. coli serotype 055:B5, rats were inhaled nebulizing LPS solution (50 mL) by nebulizer for 30 minutes. Then, 3 hours after the LPS inhalation, the rats were euthanized with 20% urethane (5 ml/rat, i.p.). 5 ml of physiological saline for bronchoalveolar lavage was injected into the bronchial tubes and alveoli through the airway, and the bronchial tubes and alveoli were washed 3 times using a 5 mL syringe. This procedure was repeated twice, and the solution was collected as bronchoalveolar lavage fluid (BALF). The collected BALF was centrifuged at 1,200 rpm and […] for 10 minutes (Hirtachi; himac CR 5 DL). The sediment was re-suspended in 10 mL of a 0.1% bovine serum albumin-physiological saline, and an equivalent amount of Turk's solution was added to the suspension to stain leukocytes. The total number of leukocytes was counted under a microscope to determine the inhibition ratio. When the inhibition ratio≧60%, the results were represented by “++.” When 60%>the inhibition ratio≧50%, the results were represented by “+.”

Molecules are shown by their SMILES.

T1 sequence (Q07343 330-659 limits assumed): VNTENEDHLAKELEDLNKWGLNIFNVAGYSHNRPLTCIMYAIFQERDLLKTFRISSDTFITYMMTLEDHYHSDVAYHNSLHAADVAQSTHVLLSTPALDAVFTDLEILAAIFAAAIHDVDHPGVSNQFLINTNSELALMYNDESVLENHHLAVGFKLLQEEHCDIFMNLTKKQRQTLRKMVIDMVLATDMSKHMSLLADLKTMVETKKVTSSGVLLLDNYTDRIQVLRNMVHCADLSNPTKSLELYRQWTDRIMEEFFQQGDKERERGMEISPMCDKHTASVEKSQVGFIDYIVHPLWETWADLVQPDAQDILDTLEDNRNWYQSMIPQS

Consider `CC(O)c1ccc(C(=O)Nc2c(Cl)cncc2Cl)c2cc(C(F)(F)F)nn12` (centres unmarked) [Example 107, 7-(1-Hydroxyethyl)-2-trifluoromethylpyrazolo[1,5-a]pyridine-4-carboxylic acid (3,5-dichloropyridin-4-yl)amide], for which the IC50 in test [1] is less than 0.1 µmol/L. Also, in test [2], the inhibition in vivo at 0.1 mg/kg fell in the range of 70 to 90%. Moreover, the Inhibition ratio entry in test [3] was “+ (When 60%>the inhibition ratio≧50%, the results were represented by “+.”)”.

Turning to `COc1ccc(C(=O)Nc2c(Cl)cncc2Cl)c2cc(C=O)nn12` [Example 78, 2-Formyl-7-methoxypyrazolo[1,5-a]pyridine-4-carboxylic acid (3,5-dichloropyridin-4-yl)amide], the IC50 in test [1] is less than 0.1 µmol/L. The inhibition in vivo at 0.3 mg/kg in test [2] fell in the range of 70 to 90%.

For the compound `COc1ccc(C(=O)Nc2c(Cl)c[n+](O)cc2Cl)c2cc(C3CC3)nn12` [Example 25, 2-Cyclopropyl-7-methoxypyrazolo[1,5-a]pyridine-4-carboxylic acid (3,5-dichloro-1-oxypyridin-4-yl)amide], in test [1], the IC50 was less than 0.1 µmol/L. For the same compound, in test [2], the inhibition in vivo at 0.3 mg/kg is not below 90%.

With `COCc1cc2c(C(=O)Nc3c(Cl)cncc3Cl)ccc(OC)n2n1` [Example 76, 7-Methoxy-2-methoxymethylpyrazolo[1,5-a]pyridine-4-carboxylic acid (3,5-dichloropyridin-4-yl)amide], in test [1], the IC50 was less than 0.1 µmol/L. Besides, the inhibition in vivo at 0.1 mg/kg in test [2] fell in the range of 70 to 90%.

With `CCc1cc2c(C(=O)Nc3c(Cl)cncc3Cl)ccc(OC)n2n1` [Example 9, 2-Ethyl-7-methoxypyrazolo[1,5-a]pyridine-4-carboxylic acid (3,5-dichloropyridin-4-yl)amide], in test [1], the IC50 was less than 0.1 µmol/L. In test [2], the inhibition in vivo at 0.1 mg/kg fell in the range of 70 to 90%. For the same compound, the Inhibition ratio result in test [3] is “+ (When 60%>the inhibition ratio≧50%, the results were represented by “+.”)”.

As for `COc1ccc(C(=O)Nc2c(Cl)cncc2Cl)c2cc(C#N)nn12` [Example 83, 2-Cyano-7-methoxypyrazolo[1,5-a]pyridine-4-carboxylic acid (3,5-dichloropyridin-4-yl)amide], the IC50 in test [1] is less than 0.1 µmol/L. In test [2], the inhibition in vivo at 0.1 mg/kg was not below 90%.

Turning to `COc1ccc(C(=O)Nc2c(Cl)cncc2Cl)c2cc(C(F)(F)F)nn12` [Example 16, 7-Methoxy-2-trifluoromethylpyrazolo[1,5-a]pyridine-4-carboxylic acid (3,5-dichloropyridin-4-yl)amide], in test [1], the IC50 was less than 0.1 µmol/L. Also, in test [2], the inhibition in vivo at 0.1 mg/kg is not below 90%. Moreover, in test [3], the Inhibition ratio result was “++ (When the inhibition ratio≧60%, the results were represented by “++.”)”.
